Patent publication US9615503B2, “Method for cultivating sugar cane” (BASF SE, priority 2011, dated 2017)

System: sugar cane bud discs
Test: Survival of sugar cane seedlings grown from treated bud discs (greenhouse, then acclimatization)
Format: in vivo
Conditions: for Number of surviving seedlings: of 648 planted buds per treatment, bud discs immersed 10 seconds in aqueous solution (pyraclostrobin 1 g/l, fipronil 0.8 g/l, fluxapyroxade 1.2 g/l, thiamethoxam 1.5 g/l), counted after 30 to 45 days greenhouse plus 15 days acclimatization, untreated 211; for Increase of survival rate [%]: relative to untreated buds (211 of 648 surviving), same treatment and concentrations as the number of surviving seedlings
Excerpt: On an area of 0.1 hectares where sugar cane plants were growing with a distance between the rows of 1.5 m, the top part of the 8 months old sugar cane plants was removed by chopping off with a machete in a height of approximately 2 to 2.5 m. The removed top part was discarded. The below, remaining stalks were removed from the field by cutting them off closely above the ground. The stalks were then cut longitudinally into halves in such a manner that the buds were approximately centralized on the halves. From the stalk halves discs of ca. 2 cm of diameter each containing a bud and a part of the respective node were punched off with a punching machine. For each treatment, 648 bud discs were immersed for 10 seconds into an aqueous solution containing either pyraclostrobin (1 g/l; used as the commercial product Comet® of a concentration of 250 g/l of pyraclostrobin) or fipronil (0.8 g/l; used as the commercial product Regent® of a concentration of 800 g/kg of fipronil) or fluxapyroxade (1.2 g/l; used as the commercial product BAS 700 04F of a concentration of 300 g/l) or thiamethoxam (1.5 g/l; used as the commercial product Actara® 250 WG of a concentration of […]). The treated buds were then each placed in individual pots filled with humid coconut fibers. 648 bud discs stayed untreated for comparative reasons and were directly placed in individual pots filled with humid coconut fibers. The pots were placed in a greenhouse, and seedlings were grown from the planted bud discs at 25 to 35° C. and 70 to 80% humidity. While in the greenhouse, the buds/seedlings were watered sufficiently. 30 to 45 days after having been placed in the greenhouse, the surviving seedlings were transferred in an acclimatization area and kept for 15 days. Thereafter they were counted and then transplanted to a field.

Structure (SMILES): N#Cc1nn(-c2c(Cl)cc(C(F)(F)F)cc2Cl)c(N)c1[S+]([O-])C(F)(F)F (centres unmarked) [Fipronil, fipronil]
- Number of surviving seedlings: 236
- Increase of survival rate [%]: 11.8%

Structure (SMILES): Cn1cc(C(=O)Nc2ccccc2-c2cc(F)c(F)c(F)c2)c(C(F)F)n1 [Fluxapyroxade, N-(3′,4′,5′-trifluorobiphenyl-2-yl)-3-difluoromethyl-1-methyl-1H-pyrazole-4-carboxamide]
- Number of surviving seedlings: 248
- Increase of survival rate [%]: 17.5%

Structure (SMILES): COC(=O)N(OC)c1ccccc1COc1ccn(-c2ccc(Cl)cc2)n1 [Pyraclostrobin, pyraclostrobin]
- Number of surviving seedlings: 391
- Increase of survival rate [%]: 85.3%

Structure (SMILES): CN1COCN(Cc2cnc(Cl)s2)/C1=N\[N+](=O)[O-] [Thiamethoxam, thiamethoxam]
- Number of surviving seedlings: 225
- Increase of survival rate [%]: 6.6%
